According to PubChem BioAssay (NCI):
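Five concentrations, 48 hours, 96-well plates. TGI: concentration producing complete growth inhibition.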

How the values were obtained:
Assay in all cases: inhibition of tumour cell growth, NCI panel, 48 h
OVCAR-5 ovarian = system: OVCAR-5 ovarian
MDA-N = system: MDA-N
NCI-H522 lung = system: NCI-H522 lung
EKVX NSCLC = system: EKVX NSCLC
NCI-H226 lung = system: NCI-H226 lung
SF-295 CNS = system: SF-295 CNS
TK-10 renal = system: TK-10 renal
SK-MEL-28 melanoma = system: SK-MEL-28 melanoma
MCF7 breast = system: MCF7 breast
OVCAR-4 ovarian = system: OVCAR-4 ovarian
M14 melanoma = system: M14 melanoma
ACHN renal = system: ACHN renal
SNB-75 CNS = system: SNB-75 CNS
SK-OV-3 ovarian = system: SK-OV-3 ovarian
RXF 393 renal = system: RXF 393 renal
IGROV1 ovarian = system: IGROV1 ovarian
HL-60(TB) leukemia = system: HL-60(TB) leukemia
COLO 205 colon = system: COLO 205 colon
786-0 renal = system: 786-0 renal
MDA-MB-231 breast = system: MDA-MB-231 breast
CCRF-CEM leukemia = system: CCRF-CEM leukemia
HT29 colon = system: HT29 colon
SNB-19 CNS = system: SNB-19 CNS
UACC-257 melanoma = system: UACC-257 melanoma
KM12 colon = system: KM12 colon
SK-MEL-5 melanoma = system: SK-MEL-5 melanoma
SF-268 CNS = system: SF-268 CNS
U251 CNS = system: U251 CNS
LOX IMVI melanoma = system: LOX IMVI melanoma
BT-549 breast = system: BT-549 breast
MALME-3M melanoma = system: MALME-3M melanoma
OVCAR-3 ovarian = system: OVCAR-3 ovarian
HCT-116 colon = system: HCT-116 colon
HCT-15 colon = system: HCT-15 colon
K-562 leukemia = system: K-562 leukemia
CAKI-1 renal = system: CAKI-1 renal
NCI-H460 lung = system: NCI-H460 lung
HCC-2998 colon = system: HCC-2998 colon
HS 578T breast = system: HS 578T breast
RPMI-8226 leukemia = system: RPMI-8226 leukemia
A498 renal = system: A498 renal
UACC-62 melanoma = system: UACC-62 melanoma
SW-620 colon = system: SW-620 colon
DU-145 prostate = system: DU-145 prostate
MDA-MB-435 = system: MDA-MB-435
SN12C renal = system: SN12C renal
SK-MEL-2 melanoma = system: SK-MEL-2 melanoma
UO-31 renal = system: UO-31 renal
HOP-62 NSCLC = system: HOP-62 NSCLC
NCI/ADR-RES ovarian = system: NCI/ADR-RES ovarian
SF-539 CNS = system: SF-539 CNS
OVCAR-8 ovarian = system: OVCAR-8 ovarian
PC-3 prostate = system: PC-3 prostate
A549 NSCLC = system: A549 NSCLC
T-47D breast = system: T-47D breast
NCI-H23 lung = system: NCI-H23 lung
MOLT-4 leukemia = system: MOLT-4 leukemia
HOP-92 NSCLC = system: HOP-92 NSCLC

Q: Which TGI (OVCAR-5 ovarian) does the source give for `Cc1csc(-n2nc(C)cc2C)n1` here?
A: Its TGI is > 100 µM.

Q: And the TGI (MDA-N)?
A: Its TGI is > 100 µM.

Q: What about the TGI (NCI-H522 lung) of the same compound?
A: Its TGI is > 100 µM.

Q: What about the TGI (EKVX NSCLC) of the same compound?
A: The TGI was > 100 µM.

Q: And the TGI (NCI-H226 lung)?
A: The TGI was > 100 µM.

Q: And the TGI (SF-295 CNS)?
A: The TGI was > 100 µM.

Q: What about the TGI (TK-10 renal) of the same compound?
A: Its TGI is > 100 µM.

Q: What about the TGI (SK-MEL-28 melanoma) of the same compound?
A: Its TGI is > 100 µM.

Q: And the TGI (MCF7 breast)?
A: Its TGI is > 100 µM.

Q: And the TGI (OVCAR-4 ovarian)?
A: The TGI was > 100 µM.

Q: What about the TGI (M14 melanoma) of the same compound?
A: Its TGI is > 100 µM.

Q: What about the TGI (ACHN renal) of the same compound?
A: Its TGI is > 100 µM.

Q: And the TGI (SNB-75 CNS)?
A: The TGI was > 100 µM.

Q: What about the TGI (SK-OV-3 ovarian) of the same compound?
A: The TGI was > 100 µM.

Q: And the TGI (RXF 393 renal)?
A: Its TGI is > 100 µM.

Q: What about the TGI (IGROV1 ovarian) of the same compound?
A: Its TGI is > 100 µM.

Q: What about the TGI (HL-60(TB) leukemia) of the same compound?
A: The TGI was > 100 µM.

Q: And the TGI (COLO 205 colon)?
A: Its TGI is > 100 µM.

Q: And the TGI (786-0 renal)?
A: Its TGI is > 100 µM.

Q: What about the TGI (MDA-MB-231 breast) of the same compound?
A: The TGI was > 100 µM.

Q: What about the TGI (CCRF-CEM leukemia) of the same compound?
A: The TGI was > 100 µM.

Q: What about the TGI (HT29 colon) of the same compound?
A: Its TGI is > 100 µM.

Q: And the TGI (SNB-19 CNS)?
A: The TGI was > 100 µM.

Q: What about the TGI (UACC-257 melanoma) of the same compound?
A: Its TGI is > 100 µM.

Q: And the TGI (KM12 colon)?
A: Its TGI is > 100 µM.

Q: And the TGI (SK-MEL-5 melanoma)?
A: The TGI was > 100 µM.

Q: And the TGI (SF-268 CNS)?
A: Its TGI is > 100 µM.

Q: And the TGI (U251 CNS)?
A: The TGI was > 100 µM.

Q: And the TGI (LOX IMVI melanoma)?
A: The TGI was > 100 µM.

Q: What about the TGI (BT-549 breast) of the same compound?
A: The TGI was > 100 µM.

Q: What about the TGI (MALME-3M melanoma) of the same compound?
A: The TGI was > 100 µM.

Q: What about the TGI (OVCAR-3 ovarian) of the same compound?
A: Its TGI is > 100 µM.

Q: And the TGI (HCT-116 colon)?
A: Its TGI is > 100 µM.

Q: What about the TGI (HCT-15 colon) of the same compound?
A: The TGI was > 100 µM.

Q: What about the TGI (K-562 leukemia) of the same compound?
A: The TGI was > 100 µM.

Q: And the TGI (CAKI-1 renal)?
A: The TGI was > 100 µM.

Q: And the TGI (NCI-H460 lung)?
A: Its TGI is > 100 µM.

Q: What about the TGI (HCC-2998 colon) of the same compound?
A: The TGI was > 100 µM.

Q: And the TGI (HS 578T breast)?
A: The TGI was > 100 µM.

Q: What about the TGI (RPMI-8226 leukemia) of the same compound?
A: Its TGI is > 100 µM.

Q: What about the TGI (A498 renal) of the same compound?
A: Its TGI is > 100 µM.

Q: And the TGI (UACC-62 melanoma)?
A: Its TGI is > 100 µM.

Q: What about the TGI (SW-620 colon) of the same compound?
A: Its TGI is > 100 µM.

Q: And the TGI (DU-145 prostate)?
A: Its TGI is > 100 µM.

Q: And the TGI (MDA-MB-435)?
A: Its TGI is > 100 µM.

Q: What about the TGI (SN12C renal) of the same compound?
A: The TGI was > 100 µM.

Q: And the TGI (SK-MEL-2 melanoma)?
A: Its TGI is > 100 µM.

Q: What about the TGI (UO-31 renal) of the same compound?
A: The TGI was > 100 µM.

Q: What about the TGI (HOP-62 NSCLC) of the same compound?
A: Its TGI is > 100 µM.

Q: What about the TGI (NCI/ADR-RES ovarian) of the same compound?
A: The TGI was > 100 µM.

Q: What about the TGI (SF-539 CNS) of the same compound?
A: Its TGI is > 100 µM.

Q: And the TGI (OVCAR-8 ovarian)?
A: Its TGI is > 100 µM.

Q: What about the TGI (PC-3 prostate) of the same compound?
A: Its TGI is > 100 µM.

Q: And the TGI (A549 NSCLC)?
A: The TGI was > 100 µM.

Q: What about the TGI (T-47D breast) of the same compound?
A: Its TGI is > 100 µM.

Q: And the TGI (NCI-H23 lung)?
A: The TGI was > 100 µM.

Q: What does the source list for `COc1ccc(N=NC(=O)NC(CC(C)C)C(=O)NC(Cc2ccccc2)C(=O)O)cc1` (stereo not given)?
A: TGI (OVCAR-5 ovarian): > 100 µM; TGI (MDA-N): > 100 µM; TGI (NCI-H522 lung): > 100 µM; TGI (EKVX NSCLC): > 100 µM; TGI (NCI-H226 lung): > 100 µM; TGI (SF-295 CNS): > 100 µM; TGI (TK-10 renal): > 100 µM; TGI (SK-MEL-28 melanoma): > 100 µM; TGI (MCF7 breast): > 100 µM; TGI (OVCAR-4 ovarian): > 100 µM; TGI (M14 melanoma): > 100 µM; TGI (ACHN renal): > 100 µM; TGI (SNB-75 CNS): > 100 µM; TGI (MOLT-4 leukemia): > 100 µM; TGI (RXF 393 renal): > 100 µM; TGI (IGROV1 ovarian): > 100 µM; TGI (HL-60(TB) leukemia): 8.18 µM; TGI (COLO 205 colon): 5.36 µM; TGI (786-0 renal): > 100 µM; TGI (CCRF-CEM leukemia): > 100 µM; TGI (HT29 colon): > 100 µM; TGI (SNB-19 CNS): > 100 µM; TGI (UACC-257 melanoma): 45.2 µM; TGI (KM12 colon): > 100 µM; TGI (SK-MEL-5 melanoma): 25.6 µM; TGI (HOP-92 NSCLC): 97.5 µM; TGI (SF-268 CNS): > 100 µM; TGI (U251 CNS): > 100 µM; TGI (LOX IMVI melanoma): 46.9 µM; TGI (BT-549 breast): > 100 µM; TGI (MALME-3M melanoma): > 100 µM; TGI (OVCAR-3 ovarian): > 100 µM; TGI (HCT-116 colon): > 100 µM; TGI (HCT-15 colon): > 100 µM; TGI (CAKI-1 renal): > 100 µM; TGI (NCI-H460 lung): > 100 µM; TGI (HCC-2998 colon): > 100 µM; TGI (HS 578T breast): > 100 µM; TGI (RPMI-8226 leukemia): > 100 µM; TGI (A498 renal): > 100 µM; TGI (UACC-62 melanoma): > 100 µM; TGI (SW-620 colon): > 100 µM; TGI (DU-145 prostate): > 100 µM; TGI (MDA-MB-435): > 100 µM; TGI (SN12C renal): > 100 µM; TGI (UO-31 renal): > 100 µM; TGI (HOP-62 NSCLC): > 100 µM; TGI (NCI/ADR-RES ovarian): > 100 µM; TGI (SF-539 CNS): 3.22 µM; TGI (OVCAR-8 ovarian): > 100 µM; TGI (PC-3 prostate): > 100 µM; TGI (A549 NSCLC): > 100 µM; TGI (T-47D breast): > 100 µM; TGI (NCI-H23 lung): > 100 µM
